# Values quoted from earlier work, collected in publication PMC9494641 (ACS Omega, 2022).
# Columns and labels:
# [1] = system: JAK2 expressing SET-2 cell line
# JAK2 = JAK2 (Homo sapiens, UniProt O60674); conditions: read-out: Kd JAK2
# JAK1 = conditions: read-out: IC50 JAK1
# JAK2, sequence (O60674 808-1132 limits assumed): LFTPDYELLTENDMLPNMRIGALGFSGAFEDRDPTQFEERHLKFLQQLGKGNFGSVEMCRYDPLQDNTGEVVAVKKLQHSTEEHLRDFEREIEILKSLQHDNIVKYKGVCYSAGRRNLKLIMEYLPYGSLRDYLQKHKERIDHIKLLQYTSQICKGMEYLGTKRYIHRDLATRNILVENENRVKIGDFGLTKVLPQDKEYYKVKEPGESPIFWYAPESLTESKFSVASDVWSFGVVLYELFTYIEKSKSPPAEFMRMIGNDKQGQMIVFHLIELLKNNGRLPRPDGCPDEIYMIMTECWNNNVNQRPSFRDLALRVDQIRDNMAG
compound,measurement,setting,value
Cc1cc(Nc2nc(N[C@@H](C)c3ccc(F)cc3)c(C#N)cc2F)[nH]n1 [AZ960],IC50,[1],< 3 nM
CCN(CC)CCC(CNc1ccnc2cc(Cl)ccc12)c1ccc(O)cc1 (stereo not drawn) [NSC13626],Kd,JAK2,6.6 µM
